Test results from PubChem BioAssay AID200 (DTP/NCI, 2004).
Where “and” joins values, the source holds several entries; their conditions need not be identical. Equal entries are not always repeated. Toxic doses and inconclusive results are not listed.

Test system: B6C3F1 mice, B16 melanoma ip, median survival T/C
Assay: NCI In Vivo Anticancer Drug Screen. Data for tumor model B16 Melanoma (intraperitoneal) in B6C3F1 mice
Settings: endpoint: median survival time, schedule: Q01DX009 (ip), higher = longer survival
Method: The antitumor activity of compounds was measured in mice bearing transplantable tumors. Survival or tumor size were measured and the results are expressed as the measurement made in the treated group (T) divided by the measurement made in the vehicle treated control group (C). The tumor model used in this assay is B16 Melanoma (intraperitoneal) in B6C3F1 mice

[1] = dose: 50.0 mg/kg/injection, vehicle: Klucel (hydroxypropylcellulose) (HPC)
[2] = dose: 6.25 mg/kg/injection, vehicle: saline with Tween-80
[3] = dose: 12.5 mg/kg/injection, vehicle: saline with Tween-80
[4] = dose: 25.0 mg/kg/injection, vehicle: saline with Tween-80
[5] = dose: 50.0 mg/kg/injection, vehicle: saline with Tween-80
[6] = dose: 25.0 mg/kg/injection, vehicle: Klucel (hydroxypropylcellulose) (HPC)
[7] = dose: 100.0 mg/kg/injection, vehicle: saline with Tween-80
[8] = dose: 200.0 mg/kg/injection, vehicle: saline with Tween-80

Which results are given for `CC1CCC2C(C)C(=O)OC2C2(C)C(=O)C=CC12` (centres undefined)?
T/C (dose: 14.0 mg/kg/injection, vehicle: Klucel (hydroxypropylcellulose) (HPC)): 95 % of control; T/C (dose: 22.0 mg/kg/injection, vehicle: Klucel (hydroxypropylcellulose) (HPC)): 95 % of control; T/C (dose: 35.0 mg/kg/injection, vehicle: Klucel (hydroxypropylcellulose) (HPC)): 97 % of control; T/C [1]: 97 % of control

Which results are given for `Nc1ccc(S(=O)(=O)N/N=C/c2ccccc2[N+](=O)[O-])cc1`?
T/C (dose: 3.12 mg/kg/injection, vehicle: saline with Tween-80): 95 % of control; T/C [2]: 95 % of control; T/C [3]: 96 % of control; T/C [4]: 101 % of control; T/C [5]: 104 % of control

How did the T/C [6] turn out when `O=[N+]([O-])c1ccc2c3c(ccc([N+](=O)[O-])c13)CC2` was run?
The T/C was 89 % of control.

What about the T/C [1] of the same molecule?
Its T/C is 89 % of control.

And the T/C (dose: 100.0 mg/kg/injection, vehicle: Klucel (hydroxypropylcellulose) (HPC))?
The T/C was 91 % of control and 95 % of control.

What does the source list for `CN(C)N=Nc1ccnc2ccc(I)cc12`?
T/C (dose: 3.13 mg/kg/injection, vehicle: other): 111 % of control; T/C (dose: 6.25 mg/kg/injection, vehicle: other): 115 % of control; T/C (dose: 12.5 mg/kg/injection, vehicle: other): 109 % of control; T/C (dose: 25.0 mg/kg/injection, vehicle: other): 110 % of control; T/C (dose: 50.0 mg/kg/injection, vehicle: other): 114 % of control

What does the source list for `COC(=O)Nc1nc2ccc(SC)cc2c(=O)[nH]1`?
T/C [6]: 96 % of control; T/C [1]: 101 % of control; T/C (dose: 200.0 mg/kg/injection, vehicle: Klucel (hydroxypropylcellulose) (HPC)): 114 % of control

Which results are given for `CN1C(=O)NC(c2ccc(Cl)cc2)(c2ccc(Cl)cc2)C1=O`?
T/C [3]: 105 % of control; T/C [4]: 100 % of control; T/C [5]: 99 % of control; T/C [7]: 99 % of control; T/C [8]: 103 % of control; T/C (dose: 400.0 mg/kg/injection, vehicle: saline with Tween-80): 99 % of control

Which results are given for `O=C1C(O)=C(c2ccccc2)C(=O)C(O)=C1c1ccccc1`?
T/C (dose: 3.12 mg/kg/injection, vehicle: saline): 109 % of control; T/C (dose: 6.25 mg/kg/injection, vehicle: saline): 100 % of control; T/C (dose: 12.5 mg/kg/injection, vehicle: saline): 91 % of control and 101 % of control; T/C (dose: 25.0 mg/kg/injection, vehicle: saline): 109 % of control and 117 % of control; T/C (dose: 50.0 mg/kg/injection, vehicle: saline): 108 % of control and 112 % of control

`C1OCN2CSCC12` (centres undefined) was tested. Which T/C [3] did it give?
Its T/C is 106 % of control.

And the T/C [4]?
Its T/C is 94 % of control and 99 % of control.

What about the T/C [5] of the same molecule?
Its T/C is 92 % of control and 99 % of control.

What about the T/C [7] of the same molecule?
Its T/C is 108 % of control and 109 % of control.

And the T/C [8]?
Its T/C is 109 % of control and 90 % of control.

With `O=C1N[C@@H]2C(=C[C@H](O)[C@@H](O)[C@H]2O)c2cc3c(c(O)c21)OCO3` as the molecule, how does the T/C (dose: 0.62 mg/kg/injection, vehicle: saline with Tween-80) read?
The T/C was 115 % of control.

What about the T/C (dose: 1.25 mg/kg/injection, vehicle: saline with Tween-80) of the same molecule?
The T/C was 111 % of control.

And the T/C (dose: 2.5 mg/kg/injection, vehicle: saline with Tween-80)?
Its T/C is 109 % of control.

What about the T/C (dose: 5.0 mg/kg/injection, vehicle: saline with Tween-80) of the same molecule?
Its T/C is 123 % of control.

Which T/C [2] does the source give for `C[Si](C)(C)O/C=C1\CCCCC1=O` here?
The T/C was 105 % of control.

What about the T/C [3] of the same molecule?
The T/C was 104 % of control.

What about the T/C [4] of the same molecule?
The T/C was 113 % of control.

And the T/C [5]?
Its T/C is 105 % of control.

What about the T/C [7] of the same molecule?
The T/C was 110 % of control.

What about the T/C [8] of the same molecule?
The T/C was 97 % of control.

Which T/C (dose: 2.4 micrograms/kg/injection, vehicle: saline + alcohol) does the source give for `CC[C@@H](C)[C@H]([C@H](CC(=O)N1CCC[C@@H]1[C@@H](OC)[C@H](C)C(=O)N[C@H](Cc1ccccc1)c1nccs1)OC)N(C)C(=O)[C@H](NC(=O)[C@@H](C(C)C)N(C)C)C(C)C` here?
Its T/C is 171 % of control.

What about the T/C (dose: 4.0 micrograms/kg/injection, vehicle: saline + alcohol) of the same molecule?
The T/C was 205 % of control.

And the T/C (dose: 6.67 micrograms/kg/injection, vehicle: saline + alcohol)?
The T/C was 182 % of control.

What about the T/C (dose: 11.11 micrograms/kg/injection, vehicle: saline + alcohol) of the same molecule?
The T/C was 238 % of control.

With `CC(C)CC1C(=O)OC(C(C)C)C(=O)N(C)C(CC(C)C)C(=O)OC(C(C)C)C(=O)N(C)C(CC(C)C)C(=O)OC(C(C)C)C(=O)N(C)C(CC(C)C)C(=O)OC(C(C)C)C(=O)N1C` (centres undefined) as the molecule, how does the T/C (dose: 1.0 mg/kg/injection, vehicle: saline) read?
Its T/C is 97 % of control.

And the T/C (dose: 2.0 mg/kg/injection, vehicle: saline)?
Its T/C is 99 % of control.

And the T/C (dose: 4.0 mg/kg/injection, vehicle: saline)?
The T/C was 104 % of control.

What about the T/C (dose: 8.0 mg/kg/injection, vehicle: saline) of the same molecule?
The T/C was 102 % of control.

And the T/C (dose: 16.0 mg/kg/injection, vehicle: saline)?
The T/C was 101 % of control.

How did the T/C (dose: 3.75 mg/kg/injection, vehicle: Klucel (hydroxypropylcellulose) (HPC)) turn out when `C=C(C)C(=O)O[C@H]1CC2=C[C@@H](C[C@@]3(C)O[C@@H]3[C@H]3OC(=O)C(=C)[C@@H]31)OC2=O` was run?
The T/C was 101 % of control.

And the T/C (dose: 7.5 mg/kg/injection, vehicle: Klucel (hydroxypropylcellulose) (HPC))?
The T/C was 107 % of control.

What about the T/C (dose: 15.0 mg/kg/injection, vehicle: Klucel (hydroxypropylcellulose) (HPC)) of the same molecule?
The T/C was 103 % of control.

Which T/C (dose: 0.37 mg/kg/injection, vehicle: suspension in saline) does the source give for `CC[C@@]1(O)C(=O)OCc2c1cc1n(c2=O)Cc2cc3cc(O)ccc3nc2-1` here?
The T/C was 155 % of control.

What about the T/C (dose: 0.38 mg/kg/injection, vehicle: other) of the same molecule?
The T/C was 160 % of control.

And the T/C (dose: 0.75 mg/kg/injection, vehicle: other)?
Its T/C is 191 % of control.

And the T/C (dose: 0.75 mg/kg/injection, vehicle: suspension in saline)?
The T/C was 183 % of control.

And the T/C (dose: 1.5 mg/kg/injection, vehicle: other)?
The T/C was 197 % of control.

And the T/C (dose: 1.5 mg/kg/injection, vehicle: suspension in saline)?
Its T/C is 201 % of control.

What about the T/C (dose: 3.0 mg/kg/injection, vehicle: suspension in saline) of the same molecule?
Its T/C is 201 % of control.

What does the source list for `COc1oc(C2C/C(=C/C(C)=C/C(C)=C/C(C)=C/c3ccc([N+](=O)[O-])cc3)CO2)c(C)c(=O)c1C` (centres undefined)?
T/C (dose: 0.25 mg/kg/injection, vehicle: saline with Tween-80): 96 % of control; T/C (dose: 0.5 mg/kg/injection, vehicle: saline with Tween-80): 98 % of control; T/C (dose: 1.0 mg/kg/injection, vehicle: saline with Tween-80): 99 % of control; T/C (dose: 2.0 mg/kg/injection, vehicle: saline with Tween-80): 103 % of control

Which results are given for `COc1cccc(/C=C/[N+](=O)[O-])c1OC`?
T/C (dose: 3.12 mg/kg/injection, vehicle: Klucel (hydroxypropylcellulose) (HPC)): 100 % of control; T/C (dose: 6.25 mg/kg/injection, vehicle: Klucel (hydroxypropylcellulose) (HPC)): 98 % of control; T/C (dose: 12.5 mg/kg/injection, vehicle: Klucel (hydroxypropylcellulose) (HPC)): 94 % of control; T/C [6]: 96 % of control

How did the T/C (dose: 6.0 mg/kg/injection, vehicle: Klucel (hydroxypropylcellulose) (HPC)) turn out when `Nc1ncnc2c1nnn2C1OC(CO)C(O)C1O` (centres undefined) was run?
The T/C was 113 % of control.

What about the T/C (dose: 12.0 mg/kg/injection, vehicle: Klucel (hydroxypropylcellulose) (HPC)) of the same molecule?
The T/C was 115 % of control.

And the T/C [6]?
Its T/C is 176 % of control.

What does the source list for `CC(/C=C/c1ccccc1)=Nc1ccccc1`?
T/C [3]: 99 % of control; T/C [4]: 102 % of control; T/C [5]: 99 % of control; T/C [7]: 115 % of control; T/C [8]: 110 % of control

Which results are given for `COc1cc([NH-])c([NH-])cc1OC.[Cl][Pt+2][Cl]`?
T/C (dose: 20.0 mg/kg/injection, vehicle: saline with Tween-80): 100 % of control; T/C (dose: 40.0 mg/kg/injection, vehicle: saline with Tween-80): 101 % of control; T/C (dose: 80.0 mg/kg/injection, vehicle: saline with Tween-80): 112 % of control
